ChEMBL document CHEMBL1201862, “PubChem BioAssay data set” (2004)
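Exposure lasted 48 hours, with cells grown in 96-well plates and compounds tested at five concentrations. The concentration for 50% growth inhibition is given as GI50.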 Active and inactive are the calls of the source. Cut-off read from the data, not from the text of the source: active = GI50 up to about 1.1 µM and inactive = higher.

Assays:
Test in all cases: inhibition of tumour cell growth, NCI panel, 48 h
HOP-62 = system: HOP-62
HT-29 = system: HT-29
SF-539 = system: SF-539
CCRF-CEM = system: CCRF-CEM
U-251 = system: U-251
COLO 205 = system: COLO 205
A549 = system: A549
NCI-H23 = system: NCI-H23
K562 = system: K562
KM-20L2 = system: KM-20L2
SF-295 = system: SF-295
SNB-78 = system: SNB-78
UO-31 = system: UO-31
LOX IMVI = system: LOX IMVI
SK-MEL-2 = system: SK-MEL-2
NCI-H460 = system: NCI-H460
M19-MEL = system: M19-MEL
TK-10 = system: TK-10
Malme-3M = system: Malme-3M
LXFL 529 = system: LXFL 529
RXF 631 = system: RXF 631
SK-MEL-5 = system: SK-MEL-5
SNB-19 = system: SNB-19
NCI-H226 = system: NCI-H226
SK-OV-3 = system: SK-OV-3
OVCAR-5 = system: OVCAR-5
CAKI-1 = system: CAKI-1
SW-620 = system: SW-620
UACC-62 = system: UACC-62
SR = system: SR
UACC-257 = system: UACC-257
HOP-92 = system: HOP-92
NCI-H522 = system: NCI-H522
A498 = system: A498
RXF 393 = system: RXF 393
KM12 = system: KM12
SK-MEL-28 = system: SK-MEL-28
SF-268 = system: SF-268
EKVX = system: EKVX
MOLT-4 = system: MOLT-4
DLD-1 = system: DLD-1
OVCAR-8 = system: OVCAR-8
DMS-273 = system: DMS-273
ACHN = system: ACHN
SN12C = system: SN12C
786-0 = system: 786-0
HL-60 = system: HL-60
OVCAR-4 = system: OVCAR-4
HCC 2998 = system: HCC 2998
XF498 = system: XF498
HCT-116 = system: HCT-116
IGROV-1 = system: IGROV-1
RPMI-8226 = system: RPMI-8226
M14 = system: M14
HCT-15 = system: HCT-15
DMS-114 = system: DMS-114
HOP-18 = system: HOP-18
OVCAR-3 = system: OVCAR-3
SNB-75 = system: SNB-75

## Cc1ccc(SSc2ccc(C)cc2C(=O)O)c(C(=O)O)c1
HOP-62
  GI50: > 100 µM (inactive)
HT-29
  GI50: > 100 µM (inactive)
SF-539
  GI50: > 100 µM (inactive)
CCRF-CEM
  GI50: > 100 µM (inactive)
U-251
  GI50: > 100 µM (inactive)
COLO 205
  GI50: > 100 µM (inactive)
A549
  GI50: > 100 µM (inactive)
NCI-H23
  GI50: > 100 µM (inactive)
K562
  GI50: > 100 µM (inactive)
KM-20L2
  GI50: > 100 µM (inactive)
SF-295
  GI50: > 100 µM (inactive)
SNB-78
  GI50: > 100 µM (inactive)
UO-31
  GI50: > 100 µM (inactive)
LOX IMVI
  GI50: > 100 µM (inactive)
SK-MEL-2
  GI50: > 100 µM (inactive)
NCI-H460
  GI50: > 100 µM (inactive)
M19-MEL
  GI50: > 100 µM (inactive)
TK-10
  GI50: > 100 µM (inactive)
Malme-3M
  GI50: > 100 µM (inactive)
LXFL 529
  GI50: > 100 µM (inactive)
RXF 631
  GI50: > 100 µM (inactive)
SK-MEL-5
  GI50: > 100 µM (inactive)
SNB-19
  GI50: > 100 µM (inactive)
NCI-H226
  GI50: > 100 µM (inactive)
SK-OV-3
  GI50: > 100 µM (inactive)
OVCAR-5
  GI50: > 100 µM (inactive)
CAKI-1
  GI50: > 100 µM (inactive)
SW-620
  GI50: > 100 µM (inactive)
UACC-62
  GI50: > 100 µM (inactive)
SR
  GI50: > 100 µM (inactive)
UACC-257
  GI50: > 100 µM (inactive)
HOP-92
  GI50: > 100 µM (inactive)
NCI-H522
  GI50: > 100 µM (inactive)
A498
  GI50: > 100 µM (inactive)
RXF 393
  GI50: > 100 µM (inactive)
KM12
  GI50: > 100 µM (inactive)
SK-MEL-28
  GI50: > 100 µM (inactive)
SF-268
  GI50: > 100 µM (inactive)
EKVX
  GI50: > 100 µM (inactive)
MOLT-4
  GI50: > 100 µM (inactive)
DLD-1
  GI50: > 100 µM (inactive)
OVCAR-8
  GI50: > 100 µM (inactive)
DMS-273
  GI50: > 100 µM (inactive)
ACHN
  GI50: > 100 µM (inactive)
SN12C
  GI50: > 100 µM (inactive)
786-0
  GI50: > 100 µM (inactive)
HL-60
  GI50: > 100 µM (inactive)
OVCAR-4
  GI50: > 100 µM (inactive)

## COC(=O)[C@@]12C(=O)CCC(=O)C1C1C(=CC2C)O[C@@H]2OC3(CCCCC3)O[C@H]12 (stereo partly specified)
HOP-62
  GI50: > 100 µM (inactive)
HT-29
  GI50: 47.6 µM (inactive)
SF-539
  GI50: > 100 µM (inactive)
CCRF-CEM
  GI50: 29.9 µM (inactive)
U-251
  GI50: > 100 µM (inactive)
COLO 205
  GI50: > 68.1 µM (inactive)
A549
  GI50: > 100 µM (inactive)
NCI-H23
  GI50: > 72.4 µM (inactive)
K562
  GI50: 40.3 µM (inactive)
KM-20L2
  GI50: > 100 µM (inactive)
HCC 2998
  GI50: > 100 µM (inactive)
SF-295
  GI50: > 100 µM (inactive)
SNB-78
  GI50: > 100 µM (inactive)
XF498
  GI50: > 38.4 µM (inactive)
UO-31
  GI50: > 100 µM (inactive)
HCT-116
  GI50: 43.8 µM (inactive)
LOX IMVI
  GI50: > 72.1 µM (inactive)
SK-MEL-2
  GI50: > 100 µM (inactive)
IGROV-1
  GI50: > 94.6 µM (inactive)
NCI-H460
  GI50: > 100 µM (inactive)
M19-MEL
  GI50: 61.9 µM (inactive)
TK-10
  GI50: > 100 µM (inactive)
Malme-3M
  GI50: > 100 µM (inactive)
LXFL 529
  GI50: 44.5 µM (inactive)
SK-MEL-5
  GI50: > 100 µM (inactive)
SNB-19
  GI50: > 89.5 µM (inactive)
RPMI-8226
  GI50: 19 µM (inactive)
NCI-H226
  GI50: > 100 µM (inactive)
SK-OV-3
  GI50: > 100 µM (inactive)
OVCAR-5
  GI50: > 100 µM (inactive)
CAKI-1
  GI50: > 90.4 µM (inactive)
M14
  GI50: > 100 µM (inactive)
SW-620
  GI50: 48.1 µM (inactive)
UACC-62
  GI50: > 88.7 µM (inactive)
SR
  GI50: 25.9 µM (inactive)
UACC-257
  GI50: > 100 µM (inactive)
HOP-92
  GI50: 40.5 µM (inactive)
NCI-H522
  GI50: 18.6 µM (inactive)
HCT-15
  GI50: 54.2 µM
A498
  GI50: > 100 µM (inactive)
RXF 393
  GI50: 69.2 µM (inactive)
DMS-114
  GI50: 48 µM (inactive)
KM12
  GI50: 64.1 µM (inactive)
SK-MEL-28
  GI50: 97.3 µM (inactive)
SF-268
  GI50: > 91.2 µM (inactive)
EKVX
  GI50: 99.8 µM (inactive)
MOLT-4
  GI50: 27.4 µM (inactive)
DLD-1
  GI50: 58.3 µM (inactive)
OVCAR-8
  GI50: 42.2 µM (inactive)
HOP-18
  GI50: > 64.3 µM (inactive)
OVCAR-3
  GI50: 34.8 µM (inactive)
DMS-273
  GI50: > 100 µM (inactive)
SNB-75
  GI50: > 85.1 µM (inactive)
ACHN
  GI50: > 55.1 µM (inactive)
SN12C
  GI50: > 100 µM (inactive)
786-0
  GI50: > 83.6 µM (inactive)
HL-60
  GI50: 25.8 µM (inactive)
OVCAR-4
  GI50: 59.2 µM (inactive)
